In patent US20060160197A1 (priority 2004, published 2006):

Assays:
Format in all cases: physicochemical
[1] = Example 1 reactive solvent extraction, 70% Alamine 336/10% MIBK/20% kerosene, 25° C.; conditions: pH 2 to 3
Description: A water-immiscible organic solvent (i.e., “first phase”) is subsequently mixed with the second phase, and forms a two-phase system (a water immiscible organic phase and an aqueous phase). The glycolic acid in the second phase forms a complex with the tertiary trialkyl amine in the first phase.
(§1) A variety of analytical methods can be employed to analyze the reactants and products produced using the present methods include HPLC, GC, ion selective electrodes, MS, NMR, etc. HPLC was used to measure glycolic acid and various related products. Briefly, samples are diluted with water (as needed to be within HPLC detection range) and mixed 1:1 with 0.2 M n-propanol in water (HPLC internal standard). HPLC Analytical Method: (BioRad HPX 87H ion exclusion column (BioRad, Hercules, Calif.), 300 mm×7.8 mm; 0.01 N H2SO4 mobile phase; 1.0 mL/min flow at 50° C.; 10 μL injection volume; RI detector and UV 210 nm, 20 min analysis time). HPLC Equipment: (Waters 2695 ‘Alliance’ Separations Module, 2410 Refractive Index Detector, 2487 Dual λ Absorbance Detector and Empower Pro Software (Waters Corp, Milford, Mass.).
Solvent Extraction Using Approximately 70% C8-C10 Trialkylamine in Combination with 10% Methyl Isobutyl Ketone and 20% Kerosene at 25° C.
(§2) Into a 4-mL glass reactor equipped with magnetic stir bar was placed 1 mL of a mixed solvent containing 70% (volume/volume) of trialkyl amine (Alamine® 336; Cognis Corp., Cincinnati, Ohio), 10% (volume/volume) methyl isobutyl ketone (MIBK) and 20% (volume/volume) kerosene. The pH of an aqueous solution of ammonium glycolate (5 wt % to 40 wt %) was adjusted to about pH 2 to 3 with concentrated sulfuric acid (H2SO4), then 1 mL of the resulting aqueous solution was added to the reactor. The resulting mixture was stirred for 30 minutes at 25° C.

[2] = Example 3 reactive solvent extraction, 70% Alamine 336/10% MIBK/20% kerosene, 75° C.; conditions: pH 2 to 3
Experimental: as §1
Solvent Extraction Using Approximately 70% C8-C10 Trialkylamine in Combination with 10% Methyl Isobutyl Ketone and 20% Kerosene at 75° C.
as §2, with “Alamine® 336 (Cognis),” for “of trialkyl amine (Alamine® 336; Cognis Corp., Cincinnati, Ohio),”, “to” for “to about”, “acid,” for “acid (H2SO4),”, “75°” for “25°”

[3] = Example 5 reactive solvent extraction, 90% Alamine 336/10% MIBK, 75° C.; conditions: pH 2 to 3
Experimental: as §1
Solvent Extraction Using Approximately 90% C8-C10 Trialkylamine in Combination with 10% Methyl Isobutyl Ketone at 75° C.
as §2, with “90%” for “70%”, “Alamine® 336 (Cognis) and” for “of trialkyl amine (Alamine® 336; Cognis Corp., Cincinnati, Ohio),”, “(MIBK).” for “(MIBK) and 20% (volume/volume) kerosene.”, “to” for “to about”, “acid,” for “acid (H2SO4),”, “75°” for “25°”

[4] = Example 15 reactive solvent extraction, 90% Alamine 336/10% xylenes, 75° C.; conditions: pH 2 to 3
Experimental: as §1
Solvent Extraction Using Approximately 90% C8-C10 Trialkylamine in Combination with 10% Xylenes at 75° C.
Into a 4-mL glass reactor equipped with magnetic stir bar was placed 1 mL of a mixed solvent containing 90% (volume/volume) Alamine® 336 (Cognis), 10% (volume/volume) xylenes (mixed xylene isomers). The pH of an aqueous solution of ammonium glycolate (5 wt % to 40 wt %) was adjusted to pH 2 to 3 with concentrated sulfuric acid, then 1 mL of the resulting aqueous solution was added to the reactor. The resulting mixture was stirred for 30 minutes at 75° C.

[5] = Example 18 back extraction using water from loaded solvent (70% Alamine 336/10% MIBK/20% kerosene), 140° C.; conditions: back extraction into deionized water, 40 psig nitrogen
Experimental: as §1
Following the procedures in Example 1, into a 1-L cylindrical glass vessel on an extraction mixer (mix by rotating back and forth vertically) was placed 100 mL of a mixed solvent containing 70% (volume/volume) Alamine® 336 (Cognis), 10% (volume/volume) methyl isobutyl ketone (MIBK) and 20% (volume/volume) kerosene. The pH of an aqueous solution of ammonium glycolate (10 wt % to 50 wt %) was adjusted to approximately pH 2 to 3 with concentrated sulfuric acid, then 100 mL of the resulting aqueous solution was added to the extraction mixer. The resulting mixture was stirred for 60 minutes at room temperature. […] The organic phase was collected and used in the back extraction. This organic phase containing glycolic acid is referred as “loaded solvent” below.
Back Extraction Using Water from a Loaded Solvent of Approximately 70% C8-C10 Trialkylamine in Combination with 10% Methyl Isobutyl Ketone and 20% Kerosene
Into a 85-mL pressure reaction glass tube (pressure reaction vessel, from Andrews Glass Co.) equipped with magnetic stir bar and double dip tubes was placed 10 mL deionized water and 10 mL of the loaded solvent (see Example 16). The vessel was then closed, and the headspace purged with nitrogen. The resulting mixture was stirred for 60 minutes at 140° C. under 40 psig (˜275.8 kPa) nitrogen. The stirring was stopped and the two phases allowed to separate at 140° C., then the organic phase was sampled under pressure through the top dip tube into a Hoke cylinder, and aqueous phases was sampled under pressure through the bottom dip tube into another Hoke cylinder.

[6] = initial 3.6 wt % glycolic acid in aqueous phase
[7] = initial 8.5 wt % glycolic acid in aqueous phase
[8] = initial 12.1 wt % glycolic acid in aqueous phase
[9] = initial 16.1 wt % glycolic acid in aqueous phase
[10] = initial 20.6 wt % glycolic acid in aqueous phase
[11] = initial 25.1 wt % glycolic acid in aqueous phase
[12] = initial 29.1 wt % glycolic acid in aqueous phase
[13] = initial 32.8 wt % glycolic acid in aqueous phase

SMILES: O=C(O)CO [glycolic acid]
- Partition coefficient of glycolic acid (organic wt %/aqueous wt %) [1, 6]: 1.1
- Partition coefficient of glycolic acid (organic wt %/aqueous wt %) [1, 7]: 1.1
- Partition coefficient of glycolic acid (organic wt %/aqueous wt %) [1, 8]: 1.0
- Partition coefficient of glycolic acid (organic wt %/aqueous wt %) [1, 9]: 0.94
- Partition coefficient of glycolic acid (organic wt %/aqueous wt %) [1, 10]: 0.90
- Partition coefficient of glycolic acid (organic wt %/aqueous wt %) [1, 11]: 0.85
- Partition coefficient of glycolic acid (organic wt %/aqueous wt %) [1, 12]: 0.73
- Partition coefficient of glycolic acid (organic wt %/aqueous wt %) [1, 13]: 0.67
- Partition coefficient (wt % org./wt % aq.) [2, 6]: 0.16
- Partition coefficient (wt % org./wt % aq.) [2, 7]: 0.22
- Partition coefficient (wt % org./wt % aq.) [2, 10]: 0.49
- Partition coefficient (wt % org./wt % aq.) [2, 11]: 0.56
- Partition coefficient (wt % org./wt % aq.) [2, 12]: 0.54
- Partition coefficient (wt % org./wt % aq.) [2, 13]: 0.52
- Partition coefficient (wt % org./wt % aq.) [3, 6]: 0.75
- Partition coefficient (wt % org./wt % aq.) [3, 7]: 0.70
- Partition coefficient (wt % org./wt % aq.) [3, 8]: 0.76
- Partition coefficient (wt % org./wt % aq.) [3, 9]: 0.73
- Partition coefficient (wt % org./wt % aq.) [3, 10]: 0.79
- Partition coefficient (wt % org./wt % aq.) [3, 11]: 0.87
- Partition coefficient (wt % org./wt % aq.) [3, 12]: 0.84
- Partition coefficient (wt % org./wt % aq.) [3, 13]: 0.86
- Partition coefficient (wt % org./wt % aq.) [4, 6]: 0.55
- Partition coefficient (wt % org./wt % aq.) [4, 7]: 0.55
- Partition coefficient (wt % org./wt % aq.) [4, 8]: 0.66
- Partition coefficient (wt % org./wt % aq.) [4, 9]: 0.64
- Partition coefficient (wt % org./wt % aq.) [4, 10]: 0.65
- Partition coefficient (wt % org./wt % aq.) [4, 11]: 0.73
- Partition coefficient (wt % org./wt % aq.) [4, 12]: 0.75
- Partition coefficient (wt % org./wt % aq.) [4, 13]: 0.72
- Partition coefficient (wt % org./wt % aq.) ([5]; initial 3.9 wt % glycolic acid in loaded solvent): 0.48
- Partition coefficient (wt % org./wt % aq.) ([5]; initial 11.3 wt % glycolic acid in loaded solvent): 0.37
- Partition coefficient (wt % org./wt % aq.) ([5]; initial 16.0 wt % glycolic acid in loaded solvent): 0.34
- Partition coefficient (wt % org./wt % aq.) ([5]; initial 17.5 wt % glycolic acid in loaded solvent): 0.35
